Laboratory results published in patent EP3967331A1, “ULTRA-SMALL FLUORESCENT ORGANIC NANOPARTICLES” (Centre national de la recherche scientifique, priority 2020, dated 2022).

Experiment: Nile Red probing of the hydrophobic core
Assay type: physicochemical
Settings: Nile Red 200 nM, excitation 540 nm, water
Protocol: In contrast to the out-stretched configuration of a polymer brush, the folded monomolecular nanoparticle is expected to bear a hydrophobic core (Figure 1), similar to that of micelles made of surfactants. To evidence the presence of this core, we used a solvatochromic dye Nile Red, which is a common tool for identifying low polar environment of micelles^81 and single-chain polymeric NPs. Fluorescence spectra of Nile Red at fixed concentration (200 nM) were recorded with addition of different concentrations of fully PEGylated PMAO polymer with 5 mol% BDP1 (Figure12. A drastic increase in the fluorescence intensity of Nile Red was observed accompanied by ∼30 nm blue shift of the emission band (Figure12A,B,D. The increase in the intensity stabilized above 200 nM polymer concentration (Figure12C, which corresponded well to 1/1 dye/polymer molar ratio. Below this concentration, multiple Nile Red molecules per particle can be present, which leads to dye self-quenching, explaining lower intensity at lower polymer concentrations. On the other hand, the blue shifted emission of Nile Red at ∼630 nm indicates the presence of a hydrophobic binding site in these NPs. The NPs were compared with micelles of Tween 80, having a hydrophobic core formed by hydrocarbon chains. […]

Emission of Nile Red: ~640 nm
SMILES: CCCCCCCC/C=C\CCCCCCCC(=O)OCCOCC(OCCO)C1OCC(OCCO)C1OCCO (stereo not shown) [Tween 80]
